Test results from article PMC9316000, “Preclinical Drug Pharmacokinetic, Tissue Distribution and Excretion Profiles of the Novel Limonin Derivate HY-071085 as an Anti-Inflammatory and Analgesic Candidate in Rats and Beagle Dogs” (Pharmaceuticals, 2022).

Key:
[1] = Pharmacokinetics after single-dose intragastric administration in rats; assay type: in vivo, Sprague Dawley rats; conditions: for bioavailability / MRT / AUC / AUC(0-inf) / CL/F / Tmax / Cmax / half-life / Vd/F: rat, plasma; for bioavailability: 3.25 mg/kg intragastric vs intravenous, from AUCs, read-out: absolute oral bioavailability; for AUC: read-out: AUC0-tn; for Vd/F: read-out: Vss/F
Description: Blood samples were collected from the fundus venous plexus at various times within 8 h after administration in order to analyze the concentration of HY-071085 in plasma.
The profiles of the mean plasma concentration of HY-071085 versus time after a single dose in rats are presented in Figure 2 and Figure 3, and the PK parameters are listed in Table 1. […] At the three doses, the AUCtn ratios of the female rats and male rats were 3.5, 3.9 and 2.4, respectively. The AUCtn ratio among male rats was 1:5.16:41.06, and among female rats was 1:5.71:28.20.
In vivo PK profiling in the rats: Sprague Dawley rats (approximately 177–221 g in weight) were purchased from Shanghai Xipur-Bikai Experimental Animal Co., Ltd. (Shanghai, China). Before the experiment, several rats were randomly divided into several groups, half males and half females in each group, fasting but free to drink water for 12 h. The dosage of the rats was dependent on the drug pharmacology: the HY-071085 active pharmaceutical ingredients were administered with a dosage volume of 0.25 mL/100 g body weight. The whole-blood samples were centrifuged at 8000 rpm for 5 min, and the plasma samples were separated and stored at –80 °C until the analysis.
(§1) According to the obtained plasma concentration time data, the pharmacokinetic parameters were calculated using Phoenix WinNonlin 8.1 software. The pharmacokinetic parameters—i.e., the area under the curve (AUC), mean residence time (MRT), clearance rate (Cl/F) and steady-state apparent distribution volume (Vss/F)—were calculated by the method of moments, which was estimated according to the following formulae: AUCtn=∑Ci+Ci−1ti−ti−1/2 AUC∞=AUCtn+Cm/λ AUMCtn=∑tiCi+ti−1Ci−1ti−ti−1/2 AUMC∞=AUMCtn+Ctntn/λ+1/λ^2 MRT=AUMC∞/AUC∞ Cl/F=Dose/AUC Vss/F=Cl∗MRT where Ctn is the plasma concentration of tn at the last point after administration, and the elimination rate constant was obtained by ln(concentration) time linear regression.
(§2) Due to the drug having significant individual differences in rats, it could not be uniformly fitted with a PK atrioventricular model; as such, the pharmacokinetic parameters analyzed in this study were calculated using a non-atrioventricular model. The pharmacokinetic parameters are defined as follows: Cmax is the maximum blood concentration after administration and absorption, Tmax is the time required to reach Cmax, t1/2 is the time required to eliminate half of the plasma drug concentration after the drug distribution in the body reaches equilibrium, Cl/F is the apparent clearance rate, AUC0-tn is the area under the blood concentration time curve within the dosing interval, AUC0-∞ is the area under the plasma concentration time curve from 0 to infinity, MRT is the average time that all drug molecules stay in the body, and Vss/F is the steady-state apparent distribution volume, which is the product of the clearance rate and average residence time.

[2] = Pharmacokinetics after single-dose intragastric administration in beagle dogs; assay type: in vivo; conditions: both sexes, dog, plasma; for bioavailability: 1.25 mg/kg intragastric vs intravenous, from AUC0-∞, read-out: absolute oral bioavailability; for AUC: read-out: AUC0-tn; for Vd/F: read-out: Vss/F
Description: Male and female beagle dogs were administered low (1.25 mg/kg), medium (2.5 mg/kg) and high (5 mg/kg) doses of HY-071085 by gastric gavage, and blood samples were collected from the forelimb vein at various time points before and 8 h after administration in order to analyze the concentration of HY-071085 in the plasma. The profiles of the mean plasma concentration of HY-071085 versus time in dogs are presented in Figure 7, and the PK parameters are listed in Table 2. There was no gender difference in the pharmacokinetics in dogs (Figure 8). The AUCtn ratio for the three doses was 1:3.8:11.9, and the AUC0-∞ ratio between doses was 1:3.6:11.3, which was greater than the dose increase ratio (1:2:4), as shown in Figures S3 and S4.
In vivo PK profiling in dogs: Beagle dogs (approximately 8–10 kg in weight) were purchased from Jiangsu Yadong Experimental Animal Research Institute Co. Ltd (Nanjing, China). Before the experiment, several beagle dogs were randomly divided into several groups, half males and half females in each group. Four cycles of single-dose administration experiments were carried out, and the cleaning period was 3–5 days. Repeated-dose administration was carried out after the end of four cycles of single-dose administrations and cleaning periods. According to the dosage for the rats, the dosage for the beagle dogs was converted via the body surface area method. The HY-071085 active pharmaceutical ingredients were administered with a dosage volume of 2 mL/kg body weight. The whole-blood samples were centrifuged at 8000 rpm for 5 min, and the plasma samples were separated and stored at –80 °C until the analysis.
as §1, §2

[3] = set-up: method as in earlier work; conditions: cited from earlier work
[4] = Sprague Dawley, po, female rats, S-IG 3.25 mg/kg
[5] = Sprague Dawley, po, female rats, S-IG 6.5 mg/kg
[6] = Sprague Dawley, po, female rats, S-IG 13 mg/kg
[7] = Sprague Dawley, po, male rats, S-IG 3.25 mg/kg
[8] = Sprague Dawley, po, male rats, S-IG 6.5 mg/kg
[9] = Sprague Dawley, po, male rats, S-IG 13 mg/kg
[10] = Sprague-Dawley, po, female rats, S-IG 3.25 mg/kg
[11] = Sprague-Dawley, po, female rats, S-IG 6.5 mg/kg
[12] = Sprague-Dawley, po, female rats, S-IG 13 mg/kg
[13] = Sprague-Dawley, po, male rats, S-IG 3.25 mg/kg
[14] = Sprague-Dawley, po, male rats, S-IG 6.5 mg/kg
[15] = Sprague-Dawley, po, male rats, S-IG 13 mg/kg
[16] = po, single-dose intragastric 2.5 mg/kg

With `CC1(C)OC2CC(=O)OCC23C1C/C(=N\OCCN1CCOCC1)C1(C)C3CC[C@@]2(C)[C@H](c3ccoc3)OC(=O)C3OC312` (stereo partly drawn) [HY-071085, (12S,12aS,E)-12-(furan-3-yl)-6,6,8a,12a-tetramethyl-8-((2-morpholinoethoxy)imino)dodecahydro-1H,3H-oxireno [2,3-d]pyrano [4’,3’:3,3a]isobenzofuro [5,4-f]isochromene-3,10(9aH)-dione] as the compound, how does the “AUCtn ratio of female rats and male rats” value ([1]; S-IG 3.25 mg/kg) read?
Its value is 3.5.

What about the “AUCtn ratio of female rats and male rats” value ([1]; S-IG 6.5 mg/kg) of the same compound?
Its value is 3.9.

And the “AUCtn ratio of female rats and male rats” value ([1]; S-IG 13 mg/kg)?
Its value is 2.4.

What about the bioavailability ([1]; Sprague Dawley, oral, male rats) of the same compound?
The bioavailability was 2.83%.

What about the bioavailability ([1]; Sprague Dawley, po, female rats) of the same compound?
Its bioavailability is 10.8%.

What about the MRT [1, 4] of the same compound?
Its MRT is 4.06 ± 0.82 h.

What about the AUC [1, 4] of the same compound?
Its AUC is 73.7 ± 25.3 ng·h/mL.

What about the AUC(0-inf) [1, 5] of the same compound?
The AUC(0-inf) was 429 ± 204 ng·h/mL.

What about the CL/F [1, 5] of the same compound?
Its CL/F is 302 mL/min/kg.

And the MRT [1, 5]?
Its MRT is 2.57 ± 0.64 h.

What about the AUC [1, 5] of the same compound?
Its AUC is 421 ± 205 ng·h/mL.

And the MRT [1, 6]?
The MRT was 2.29 ± 0.92 h.

What about the Tmax [1, 6] of the same compound?
The Tmax was 0.95 ± 0.51 h.

And the AUC [1, 6]?
Its AUC is 2080 ± 407 ng·h/mL.

What about the bioavailability ([1]; Sprague Dawley, po, male rats) of the same compound?
The bioavailability was 2.8%.

What about the MRT [1, 7] of the same compound?
Its MRT is 3.48 ± 1.98 h.

And the AUC [1, 7]?
The AUC was 20.8 ± 3.01 ng·h/mL.

What about the AUC(0-inf) [1, 8] of the same compound?
The AUC(0-inf) was 125 ± 72.3 ng·h/mL.

What about the CL/F [1, 8] of the same compound?
Its CL/F is 1180 mL/min/kg.

What about the MRT [1, 8] of the same compound?
The MRT was 2.89 ± 1.87 h.

What about the AUC [1, 8] of the same compound?
Its AUC is 108 ± 54.2 ng·h/mL.

What about the MRT [1, 9] of the same compound?
Its MRT is 1.94 ± 0.39 h.

What about the AUC [1, 9] of the same compound?
Its AUC is 855 ± 290 ng·h/mL.

And the Cmax [1, 10]?
Its Cmax is 20.4 ± 9.08 ng/mL.

What about the Tmax [1, 10] of the same compound?
The Tmax was 0.7 ± 0.73 h.

What about the half-life [1, 10] of the same compound?
The half-life was 2.16 ± 1.13 h.

What about the Cmax [1, 11] of the same compound?
Its Cmax is 145 ± 64.5 ng/mL.

And the Tmax [1, 11]?
The Tmax was 0.9 ± 0.68 h.

What about the half-life [1, 11] of the same compound?
The half-life was 1.3 ± 0.36 h.

And the Vd/F [1, 11]?
Its Vd/F is 36.3 ± 23.2 L/kg.

And the Cmax [1, 12]?
Its Cmax is 761 ± 322 ng/mL.

What about the half-life [1, 12] of the same compound?
Its half-life is 0.9 ± 0.42 h.

What about the Cmax [1, 13] of the same compound?
The Cmax was 11.3 ± 4.54 ng/mL.

What about the Tmax [1, 13] of the same compound?
Its Tmax is 0.22 ± 0.04 h.

What about the half-life [1, 13] of the same compound?
Its half-life is 2.35 ± 1.27 h.

And the Cmax [1, 14]?
The Cmax was 107 ± 139 ng/mL.

What about the Tmax [1, 14] of the same compound?
The Tmax was 0.45 ± 0.59 h.

And the half-life [1, 14]?
Its half-life is 1.98 ± 1.04 h.

What about the Vd/F [1, 14] of the same compound?
The Vd/F was 172 ± 70.3 L/kg.

And the Cmax [1, 15]?
Its Cmax is 381 ± 152 ng/mL.

And the Tmax [1, 15]?
The Tmax was 0.85 ± 0.45 h.

And the half-life [1, 15]?
Its half-life is 1.21 ± 0.31 h.

And the “drug exposure of female rats relative to male rats” value ([1]; single-dose intragastric administration)?
Its value is “about three times”.

And the bioavailability ([2]; oral)?
Its bioavailability is 13.1%.

What about the bioavailability ([2]; po) of the same compound?
The bioavailability was ~13.1%.

What about the AUC(0-inf) ([2]; po, S-IG 1.25 mg/kg) of the same compound?
Its AUC(0-inf) is 54.1 ± 25.4 ng·h/mL.

And the CL/F ([2]; po, S-IG 1.25 mg/kg)?
Its CL/F is 517 mL/min/kg.

And the Cmax ([2]; po, S-IG 1.25 mg/kg)?
Its Cmax is 37.9 ± 20.1 ng/mL.

What about the MRT ([2]; po, S-IG 1.25 mg/kg) of the same compound?
The MRT was 1.34 ± 0.53 h.

What about the Tmax ([2]; po, S-IG 1.25 mg/kg) of the same compound?
Its Tmax is 0.49 ± 0.43 h.

And the half-life ([2]; po, S-IG 1.25 mg/kg)?
The half-life was 0.88 ± 0.44 h.

What about the AUC ([2]; po, S-IG 1.25 mg/kg) of the same compound?
The AUC was 51.1 ± 24.9 ng·h/mL.

What about the Vd/F ([2]; po, S-IG 1.25 mg/kg) of the same compound?
The Vd/F was 35.3 ± 19.1 L/kg.

What about the AUC(0-inf) ([2]; po, S-IG 5 mg/kg) of the same compound?
The AUC(0-inf) was 610 ± 235 ng·h/mL.

And the CL/F ([2]; po, S-IG 5 mg/kg)?
The CL/F was 156 mL/min/kg.

And the Cmax ([2]; po, S-IG 5 mg/kg)?
The Cmax was 436 ± 206 ng/mL.

What about the MRT ([2]; po, S-IG 5 mg/kg) of the same compound?
The MRT was 1.46 ± 0.49 h.

What about the Tmax ([2]; po, S-IG 5 mg/kg) of the same compound?
Its Tmax is 0.69 ± 0.55 h.

What about the half-life ([2]; po, S-IG 5 mg/kg) of the same compound?
Its half-life is 0.83 ± 0.13 h.

And the AUC ([2]; po, S-IG 5 mg/kg)?
Its AUC is 606 ± 236 ng·h/mL.

What about the Vd/F ([2]; po, S-IG 5 mg/kg) of the same compound?
Its Vd/F is 11.5 ± 6.03 L/kg.

And the AUC(0-inf) [2, 16]?
Its AUC(0-inf) is 195 ± 90 ng·h/mL.

And the half-life [2, 16]?
Its half-life is 0.83 ± 0.12 h.

What about the pKa [3] of the same compound?
Its pKa is 6.11.
